From the NIST ThermoML archive (doi:10.1007/s10765-006-0063-0)

What was measured:
[1] = xn = mol fraction of the nth substance listed; conditions: 101 kPa, Liquid, Sing-around technique in a fixed-path interferometer
[2] = 101.33 kPa, Liquid; for speed of sound: Sing-around technique in a fixed-path interferometer

C1COCO1 [1,3-dioxolane] + C1CCCCC1
[1]
Conditions | speed of sound [m/s]
283.15 K, x1 = 0.1044 | 1322
283.15 K, x1 = 0.2011 | 1317.6
283.15 K, x1 = 0.3005 | 1315.4
283.15 K, x1 = 0.4009 | 1316
283.15 K, x1 = 0.4998 | 1319.7
283.15 K, x1 = 0.602 | 1327.3
283.15 K, x1 = 0.7002 | 1339
283.15 K, x1 = 0.7989 | 1355.7
283.15 K, x1 = 0.8989 | 1377.7
298.15 K, x1 = 0.0998 | 1245.1
298.15 K, x1 = 0.2014 | 1240
298.15 K, x1 = 0.3019 | 1238.7
298.15 K, x1 = 0.4043 | 1240.5
298.15 K, x1 = 0.4993 | 1245.3
298.15 K, x1 = 0.6028 | 1254.2
298.15 K, x1 = 0.6998 | 1266.9
298.15 K, x1 = 0.8003 | 1284.9
298.15 K, x1 = 0.8992 | 1308.9
313.15 K, x1 = 0.1213 | 1172.5
313.15 K, x1 = 0.2006 | 1167.6
313.15 K, x1 = 0.2996 | 1166.6
313.15 K, x1 = 0.3996 | 1168.8
313.15 K, x1 = 0.5009 | 1174.2
313.15 K, x1 = 0.6 | 1183.2
313.15 K, x1 = 0.6979 | 1196.3
313.15 K, x1 = 0.7987 | 1215.2
313.15 K, x1 = 0.8991 | 1240

C1COCCO1 [1,4-dioxane] + C1CCCCC1
[1]
Conditions | speed of sound [m/s]
283.15 K, x1 = 0.0502 | 1323.1
283.15 K, x1 = 0.0999 | 1319.7
283.15 K, x1 = 0.1953 | 1315.8
283.15 K, x1 = 0.2899 | 1315.6
283.15 K, x1 = 0.3996 | 1318.4
283.15 K, x1 = 0.5017 | 1324.5
283.15 K, x1 = 0.6007 | 1333.5
283.15 K, x1 = 0.699 | 1346.1
283.15 K, x1 = 0.7956 | 1362.2
283.15 K, x1 = 0.8994 | 1383.9
283.15 K, x1 = 0.9446 | 1394.9
298.15 K, x1 = 0.0535 | 1250
298.15 K, x1 = 0.1053 | 1246.9
298.15 K, x1 = 0.1998 | 1244.4
298.15 K, x1 = 0.3003 | 1245
298.15 K, x1 = 0.4026 | 1248.6
298.15 K, x1 = 0.5006 | 1255.2
298.15 K, x1 = 0.5971 | 1264.5
298.15 K, x1 = 0.7028 | 1278.6
298.15 K, x1 = 0.8089 | 1296.9
298.15 K, x1 = 0.9038 | 1318.4
298.15 K, x1 = 0.9485 | 1330.2
313.15 K, x1 = 0.0497 | 1177.3
313.15 K, x1 = 0.102 | 1174.3
313.15 K, x1 = 0.1944 | 1172.4
313.15 K, x1 = 0.2926 | 1173.7
313.15 K, x1 = 0.3973 | 1178.3
313.15 K, x1 = 0.4969 | 1185.8
313.15 K, x1 = 0.5992 | 1196.7
313.15 K, x1 = 0.6988 | 1211
313.15 K, x1 = 0.7966 | 1229
313.15 K, x1 = 0.8972 | 1251.3
313.15 K, x1 = 0.9505 | 1264.9

C1COCO1 [1,3-dioxolane]
[2]
Conditions | mass density [kg/m3] | speed of sound [m/s]
283.15 K | 1077.1 | 1406.3
298.15 K | 1058.8 | 1339.9
313.15 K | 1040.2 | 1271.6

C1COCO1 [1,3-dioxolane] + c1ccccc1
[1]
Conditions | speed of sound [m/s]
283.15 K, x1 = 0.1037 | 1373.9
283.15 K, x1 = 0.2005 | 1377.2
283.15 K, x1 = 0.2977 | 1380.5
283.15 K, x1 = 0.4007 | 1383.5
283.15 K, x1 = 0.4995 | 1386.6
283.15 K, x1 = 0.5967 | 1389.7
283.15 K, x1 = 0.6984 | 1393.7
283.15 K, x1 = 0.7942 | 1397.3
283.15 K, x1 = 0.8973 | 1401.7
298.15 K, x1 = 0.1 | 1303.1
298.15 K, x1 = 0.2022 | 1306.8
298.15 K, x1 = 0.3002 | 1310.1
298.15 K, x1 = 0.4021 | 1313.6
298.15 K, x1 = 0.4957 | 1317
298.15 K, x1 = 0.5968 | 1320.7
298.15 K, x1 = 0.6965 | 1325.1
298.15 K, x1 = 0.7985 | 1329.4
298.15 K, x1 = 0.8973 | 1334.2
313.15 K, x1 = 0.1006 | 1233.5
313.15 K, x1 = 0.2 | 1237.2
313.15 K, x1 = 0.2985 | 1240.9
313.15 K, x1 = 0.4136 | 1245.1
313.15 K, x1 = 0.4928 | 1248.1
313.15 K, x1 = 0.5953 | 1252
313.15 K, x1 = 0.6979 | 1256.3
313.15 K, x1 = 0.7968 | 1261.2
313.15 K, x1 = 0.8979 | 1266.3
